From PMC10254852, “Design, Synthesis and Anticancer Evaluation of Nitroimidazole Radiosensitisers” (Molecules, 2023)
Like-named read-outs stand apart in the source and are kept apart here.

Assays:
[1] = test system: HCT116/54C cells; experiment: In vitro cytotoxicity, 4 h exposure oxic/anoxic, 5-day regrowth, sulforhodamine B; type: cell-based, human; details: for IC50: Homo sapiens, 4 h exposure, mean ± SEM, n = 3–4
[2] = test system: UT-SCC-74B cells; experiment: as above; type: cell-based, human; details: for IC50: Homo sapiens, 4 h exposure, mean ± SEM
[3] = test system: HCT116/54C tumours; experiment: Tumour radiosensitisation: ex vivo clonogenic assay; type: in vivo, NIH-III mice
[4] = test system: UT-SCC-74B tumours; experiment: as above; type: in vivo, NIH-III mice
[5] = Tolerability at maximum achievable dose, i.v.; type: in vivo; details: i.v. injection, NIH-III mice
From the text: The most promising 2-nitroimidazole 34 and 5-nitroimidazole 38 compounds were selected for in vivo evaluation on the basis of solubility, in vitro cytotoxicity and radiosensitisation data. These compounds were both well tolerated by i.v. injection in NIH-III mice at their maximum achievable dose (MAD) of 2.2 mmol/kg. This MAD was also achieved for some of our earlier compounds, but only when we employed a phosphate prodrug strategy owing to their poor solubility. […] The Cmax and AUC exceeded that achieved for earlier phosphate prodrugs 9–12, but was less than 2. On this basis we advanced both morpholine analogues into in vivo radiosensitisation studies.
Specific pathogen-free six- to eight-week-old female NIH-III mice, bred in the Vernon Jansen Unit, University of Auckland, were used for animal experiments. Animals had ad libitum access to food and water and were maintained in microisolator cages on a 12 h light/dark cycle. All treatments were administered by i.v. injection at a dose of 2.2 mmol/kg and injection volume of 10 mL/kg. Compounds 2, 34 and 38 were administered as solutions in saline containing 1% DMSO or for 9–12 as solutions in saline containing 2 molar equivalents of NaHCO3. Control animals received an i.v. injection of saline at 10 mL/kg. All animal experiments were conducted under the auspices of the University of Auckland Animal Ethics Committee (approval 1781).

[6] = test system: HCT116/54C cells; experiment: In vitro radiosensitisation under anoxia, clonogenic survival; type: cell-based, human; details: compound 1 mM, radiation dose for 1% survival/radiation dose for 1% survival with compound, mean ± SEM
[7] = 2.2 mmol/kg i.v. 5 min prior to 10 Gy radiation, surviving fraction after radiation/surviving fraction after drug + radiation
[8] = 2.2 mmol/kg i.v. + 10 Gy, one-way ANOVA
[9] = 2.2 mmol/kg i.v., 10 Gy, mechanism experiment (Figure 3)
[10] = drug alone 2.2 mmol/kg i.v., relative to untreated tumours

Which HCR ([1]; HCT116/54C, IC50(oxic)/IC50(anoxic)) does the source give for `O=[N+]([O-])c1nccn1CS(=O)(=O)NCCN1CCOCC1` [Compound 34] here?
The HCR was 38.8.

And the IC50 ([1]; HCT116/54C, anoxic, read-out: IC50 Anoxic)?
Its IC50 is 0.17 ± 0.01 mM.

And the IC50 ([1]; HCT116/54C, oxic, read-out: IC50 Oxic)?
The IC50 was 6.4 ± 1 mM.

And the “HCR values in vitro” value ([1]; range across the cell line panel)?
The value was 23–38.

What about the IC50 ([2]; anoxic, n = 3–4, read-out: IC50 Anoxic) of the same compound?
Its IC50 is 0.51 ± 0.08 mM.

And the IC50 ([2]; oxic, n = 3–4, read-out: IC50 Oxic)?
Its IC50 is 12.6 ± 1.8 mM.

What about the HCR ([2]; IC50(oxic)/IC50(anoxic)) of the same compound?
Its HCR is 24.5.

What about the “Sensitisation Ratio” value [3, 7] of the same compound?
Its value is 14.9.

What about the “enhancement of tumour killing of radiotherapy (RAD vs drug + RAD)” value [3, 8] of the same compound?
The value was “significantly enhanced the tumour killing of radiotherapy”.

And the “SR, drug given 5 min before radiation” value [3, 9]?
The value was 9.76.

What about the “SR, drug given 20 min after radiation” value [3, 9] of the same compound?
The value was 1.49.

What about the “single agent cell kill” value [3, 10] of the same compound?
Its value is 62.3 ± 7.9%.

And the “Sensitisation Ratio” value [4, 7]?
The value was 13.8.

And the “enhancement of tumour cell killing by radiotherapy (RAD vs drug + RAD)” value [4, 8]?
The value was “significantly enhanced tumour cell killing by radiotherapy”.

And the “single agent cell kill” value [4, 10]?
Its value is 68.4 ± 1.2%.

What about the “maximum achievable dose (MAD), well tolerated” value [5] of the same compound?
Its value is 2.2 mmol/kg.

And the “SER at 1 mM” value [6]?
The value was 1.92 ± 0.01.
